# Reference: paper PMC4341838 (Biochemistry, 2015)
# Assay: Circular dichroism in POPC liposomes
# Format: physicochemical
# Conditions: 1:250 peptide:lipid
sequence,measurement,value
SSLSLLSLSWLSLSLLSLS [SLscr2],"Conformation by CD in POPC liposomes, in words",β-sheet-like conformation
